Test results: ChEMBL document CHEMBL3785048, “Effects of polar receptor agonists designed for the periphery on ATP-induced Ca2+release from keratinocytes” (Medchemcomm, 2016)
Activity calls are given as the source filed them. The rule behind the calls is not given here.

Key:
[1] = Distribution coefficient, logD between n-octonol and aqueous PBS buffer at pH 5.4 by LC-MS analysis detection based shake flask method; assay type: physicochemical; conditions: n-octanol/aqueous PBS buffer
[2] = Distribution coefficient, logD between n-octonol and aqueous MOPS buffer at pH 7.4 by LC-MS analysis detection based shake flask method; assay type: physicochemical; conditions: n-octanol/aqueous MOPS buffer
[3] = molecular target: T1, Kappa-type opioid receptor (Homo sapiens, UniProt P41145); test: Agonist activity at kappa opioid receptor in ATP stimulated human HaCaT cells assessed as reduction in intracellular Ca2+ release at 1 uM after 45 mins by FURA-2AM dye based luminescence spectrophotometry method; assay type: functional, cell-based
T1 sequence (P41145 whole entry): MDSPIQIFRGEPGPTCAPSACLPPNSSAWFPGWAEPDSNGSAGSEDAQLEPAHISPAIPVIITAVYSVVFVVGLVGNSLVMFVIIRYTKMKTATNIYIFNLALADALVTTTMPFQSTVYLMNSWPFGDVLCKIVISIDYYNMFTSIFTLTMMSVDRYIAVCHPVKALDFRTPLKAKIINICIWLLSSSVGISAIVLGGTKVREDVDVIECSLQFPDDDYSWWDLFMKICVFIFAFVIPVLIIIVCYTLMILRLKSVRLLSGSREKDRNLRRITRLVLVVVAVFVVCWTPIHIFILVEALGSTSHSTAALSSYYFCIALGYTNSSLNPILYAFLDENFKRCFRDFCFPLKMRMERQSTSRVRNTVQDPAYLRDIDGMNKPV

[4] = molecular target: T1, Kappa-type opioid receptor; test: Agonist activity at human kappa opioid receptor expressed in HEK-293 cells after 45 mins by [35S]GTP-gamma-S binding assay in presence of 10 uM of GDP; assay type: cell-based, HEK293
CHO-K1 [5] = test: Selectivity index, ratio of Ki for human mu opioid receptor expressed in CHO-K1 cells to guinea pig kappa opioid receptor; assay type: cell-based
Rattus norvegicus = species: Rattus norvegicus; test: Displacement of [3H]DTG from rat sigma2 receptor at 10 uM after 120 mins by liquid scintillation counting method
Mu-type opioid receptor = Mu-type opioid receptor (Homo sapiens, UniProt P35372); test: biochemical; assay type: cell-based, CHO-K1
Mu-type opioid receptor, sequence (P35372 whole entry): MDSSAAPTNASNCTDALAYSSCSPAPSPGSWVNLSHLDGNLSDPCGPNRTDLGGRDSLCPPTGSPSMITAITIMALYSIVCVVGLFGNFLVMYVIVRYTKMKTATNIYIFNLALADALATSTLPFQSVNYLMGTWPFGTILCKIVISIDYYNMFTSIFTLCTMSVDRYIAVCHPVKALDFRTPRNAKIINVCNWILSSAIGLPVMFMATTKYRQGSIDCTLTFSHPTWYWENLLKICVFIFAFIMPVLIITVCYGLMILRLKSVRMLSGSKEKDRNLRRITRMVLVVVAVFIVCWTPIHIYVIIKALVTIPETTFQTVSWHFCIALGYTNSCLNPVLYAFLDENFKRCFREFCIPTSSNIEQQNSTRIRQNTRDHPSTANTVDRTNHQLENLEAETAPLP

Sus scrofa = species: Sus scrofa; test: Displacement of [3H]MK-801 from pig N-methyl D-aspartate receptor phencyclidine binding site at 10 uM after 150 min by liquid scintillation counting method
CHO-K1 [6] = test: Selectivity index, ratio of Ki for human delta opioid receptor expressed in CHO-K1 cells to guinea pig kappa opioid receptor; assay type: cell-based
[7] = molecular target: Sigma non-opioid intracellular receptor 1 (Cavia porcellus) (UniProt Q60492); test: Displacement of [3H]-(+)-pentazocine from guinea pig Sigma1-receptor at 10 uM after 120 mins by liquid scintillation counting method
Sigma non-opioid intracellular receptor 1 (Cavia porcellus), sequence (Q60492 whole entry): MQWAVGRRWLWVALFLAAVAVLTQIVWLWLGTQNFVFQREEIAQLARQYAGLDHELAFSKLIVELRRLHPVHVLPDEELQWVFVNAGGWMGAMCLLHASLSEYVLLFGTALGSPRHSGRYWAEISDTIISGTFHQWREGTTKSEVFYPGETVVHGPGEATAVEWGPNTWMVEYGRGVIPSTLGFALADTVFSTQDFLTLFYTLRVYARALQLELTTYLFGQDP

CHO-K1 [8] = test: Selectivity index, ratio of Ki for human mu opioid receptor expressed in CHO-K1 cells to Ki for human kappa opioid receptor expressed on HEK-293 cells; assay type: cell-based
CHO-K1 [9] = test: Selectivity index, ratio of Ki for human delta opioid receptor expressed in CHO-K1 cells to Ki for human kappa opioid receptor expressed on HEK-293 cells; assay type: cell-based
[10] = molecular target: Delta-type opioid receptor (Homo sapiens) (UniProt P41143); test: Displacement of [3H]deltrophine from human delta opioid receptor expressed in CHO-K1 cells at 10 uM after 150 mins by liquid scintillation counting method; assay type: cell-based
Delta-type opioid receptor (Homo sapiens), sequence (P41143 whole entry): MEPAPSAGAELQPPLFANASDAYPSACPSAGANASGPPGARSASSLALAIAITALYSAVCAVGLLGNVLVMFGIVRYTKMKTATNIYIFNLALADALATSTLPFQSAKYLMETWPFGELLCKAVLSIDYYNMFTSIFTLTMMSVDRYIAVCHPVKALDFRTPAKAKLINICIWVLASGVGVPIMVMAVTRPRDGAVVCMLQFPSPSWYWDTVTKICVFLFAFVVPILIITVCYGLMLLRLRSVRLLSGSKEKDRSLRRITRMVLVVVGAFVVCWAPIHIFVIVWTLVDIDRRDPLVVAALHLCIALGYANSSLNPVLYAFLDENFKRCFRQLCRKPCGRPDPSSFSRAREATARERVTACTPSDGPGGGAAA

[11] = molecular target: T1, Kappa-type opioid receptor; test: Agonist activity at human kappa opioid receptor expressed in HEK-293 cells after 45 mins by [35S]GTP-gamma-S binding assay in presence of 10 uM of GDP relative to U-69,593; assay type: cell-based; conditions: HEK293
[12] = molecular target: T1, Kappa-type opioid receptor; test: biochemical; assay type: cell-based, HEK293
Description: Displacement of [3H]Cl-977 from human kappa opioid receptor expressed on HEK-293 cells by liquid scintillation counting method

[13] = molecular target: Kappa-type opioid receptor (Cavia porcellus, UniProt P41144); test: Displacement of [3H]U-69,593 from kappa opioid receptor in guinea pig brain membarnes by liquid scintillation counting method
Kappa-type opioid receptor (Cavia porcellus, UniProt P41144), sequence (P41144 whole entry): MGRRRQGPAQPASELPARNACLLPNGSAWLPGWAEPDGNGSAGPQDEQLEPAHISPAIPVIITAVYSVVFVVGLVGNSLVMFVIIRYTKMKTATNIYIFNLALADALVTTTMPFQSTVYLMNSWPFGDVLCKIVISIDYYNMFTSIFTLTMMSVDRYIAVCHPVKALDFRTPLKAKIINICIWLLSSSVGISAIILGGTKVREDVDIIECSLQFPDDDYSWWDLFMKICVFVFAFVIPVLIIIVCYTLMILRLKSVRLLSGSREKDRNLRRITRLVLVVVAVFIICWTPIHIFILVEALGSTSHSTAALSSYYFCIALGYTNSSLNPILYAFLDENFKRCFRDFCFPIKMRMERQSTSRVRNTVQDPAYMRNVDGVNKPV

With `COC(=O)N1CCN(C(=O)Cc2ccc(Cl)c(Cl)c2)C2C(N3CCCC3)CCCC21` (stereo not drawn) the logD [1] was 0.39 and the logD [2] was 1.29.
`CN(C(=O)/C=C/c1ccoc1)[C@@H]1CC[C@@]2(O)[C@H]3Cc4ccc(O)c5c4[C@@]2(CCN3CC2CC2)[C@H]1O5` showed an inhibition [3] of 40%.
`O=C(Cc1ccc(Cl)c(Cl)c1)N1CCNC2CCCC(N3CCC(O)C3)C21` (mixture of isomers) showed a logD [1] of -2.47 and a logD [2] of 0.23.
In the case of `COC(=O)N1CCN(C(=O)Cc2ccc(Cl)c(Cl)c2)C2C(N3CCC(O)C3)CCCC21` (mixture of isomers), the logD [1] is reported as 0.04, the inhibition [3] is reported as “Active” and the EC50 [4] is reported as 79 nM. It also gave a logD [2] of 1.31.
`O=C(Cc1ccc(Cl)c(Cl)c1)N1CCN(Cc2cccnc2)C2CCCC(N3CCC(O)C3)C21` (mixture of isomers) gave a logD [1] of -0.39, a Ratio Ki (CHO-K1 [5]) of 1000 and an inhibition (Rattus norvegicus) of 23%. For the same compound, the Ki (Mu-type opioid receptor) was 3480 nM, the inhibition (Sus scrofa) was “inactive” and the Ratio Ki (CHO-K1 [6]) was 1000. It also gave an inhibition [7] of 10%, a Ratio Ki (CHO-K1 [8]) of 100 and a Ratio Ki (CHO-K1 [9]) of 100. For the same compound, the inhibition [10] was 35%, the Intrinsic activity [11] was 100% and the inhibition [3] was “Active”. It also gave a Ki [12] of 31 nM and a logD [2] of 1.26.
For `O=C(Cc1ccc(Cl)c(Cl)c1)N1CCN(Cc2cccnc2)C2CCCC(N3CCCC3)C21` (racemic), the logD [1] was -0.45, the Ratio Ki (CHO-K1 [5]) was greater than 10000 and the inhibition (Rattus norvegicus) was 1%. For the same compound, the Ki (Mu-type opioid receptor) was 2460 nM, the inhibition (Sus scrofa) was “inactive” and the Ratio Ki (CHO-K1 [6]) was greater than 10000. It also gave an inhibition [7] of 20%, a Ki [13] of 0.13 nM and a Ratio Ki (CHO-K1 [8]) of 100. The Ratio Ki (CHO-K1 [9]) was 100, the inhibition [10] was 40% and the Intrinsic activity [11] was 100%. The inhibition [3] was “Active”, the Ki [12] was 22 nM and the logD [2] was 1.1.
